Measured values published in patent publication US11759461B2, “Small molecule inhibitors of cancer stem cells and mesenchymal cancer types” (The Scripps Research Institute, priority 2017, dated 2023).
Blank lines part the entries; values can stand above or below the compound they belong to.

Assays:
control HMLER cells = experiment: Cell Titer Glo viability of control HMLER cells; format: cell-based; details: Homo sapiens; 72-hour incubation; read-out: control HMLER IC50
Text: An engineered cancer cell line HMLER as an isogenic screening system was employed to identify compounds that are selectively toxic to the FOXC2 positive genotype. HMLER cells are derived from mammary epithelial cells (HMECs), but are virally transformed with the […] oncogene (G12V), human telomerase reverse transcriptase (hTERT), and SV40 large-T antigen (B. Elenbaas, B. et al. Genes Dev. 15 (2001) 50-65). Expression of these genes endows HMLER cells with functional immortality and tumorigenic potential at high seeding number (>10^6 cells; Hollier (2013)). […]
For high throughput screening, FOXC2-HMLER and HMLER cells were plated at 10^3 cells per well in white 384-well plates in 50 μL of MEGM medium (Lonza). […] After 72-hour incubation, 30 μL of a Cell Titer Glo solution (diluted 1:6 in water, Promega) was dispensed into each well and luminance values were recorded using an Envision plate reader. […]
More specifically, in the high throughput screening assay above, each cell line was plated at 1,000 cells per well in 384-well plates, treated for 72 hours with 2 μM of test compound, and the viability of each line was determined in parallel by Cell Titer Glo (Promega) luminance measurements. […]

[1] = tested on: FOXC2-expressing HMLER cells; experiment: Cell Titer Glo viability of FOXC2-HMLER cells (high throughput screen and 10-point response); format: cell-based; details: Homo sapiens; 72-hour incubation; read-out: FOXC2-HMLER IC50
Procedure, shortened: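 Viability after 72 h compound exposure was measured as Cell Titer Glo luminescence. FOXC2-HMLER and parental HMLER cells, 1,000 per well in MEGM medium, were dosed 1 h after plating; screening concentration was 2 μM.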

[2] = target: T1, recombinant full length VIM (Homo sapiens, UniProt P08670); experiment: In vitro photo-affinity labeling of recombinant proteins with 1-PAP; format: binding
T1 construct: 1-PAP labels recombinant full length VIM in vitro
Protocol: To identify the relevant cellular target of Compound 1, we incubated live FOXC2-HMLER cells with 2.5 μM 1-PAP, as prepared in Example 5, for 15 minutes and subjected these cells to UV irradiation. A sample containing both 1-PAP and a 20-fold molar excess of free Compound 1 was used to distinguish specific labeling events.
VIM consists of a long rod domain, which forms a coiled coil in the presence of other VIM molecules, as well as head and tail domains. To identify which portion of the protein was the relevant site of 1-PAP labeling, we expressed these domains as GST fusion proteins. […] VIM is one of four type III intermediate filament proteins, whose members additionally include Peripherin, glial fibrillary acidic protein (GFAP), and Desmin, which share 59%, 61%, and 62% sequence similarity to VIM respectively (SIM alignment, ExPASy) (E. Fuchs et al., Annu. Rev. Biochem. 63 (1994) 345-382).

VIM [3] = target: T2, VIM (Homo sapiens, UniProt P08670); experiment: Immunofluorescent analysis of VIM filamentous architecture in HUVECs; format: cell-based; details: one-hour treatment
T2 construct: endogenous in cells; host or cells: FOXC2-HMLER

FOXC2-HMLER cells [4] = experiment: Multinucleation of FOXC2-HMLER cells; format: cell-based, human; details: 250-500 nM, 24 hours
VIM [5] = target: T2, VIM; experiment: Western blotting / immunofluorescence of VIM protein status in FOXC2-HMLER cells; format: cell-based; details: FOXC2-HMLER cells, Western blotting
Protocol: Western blotting was performed essentially as described previously (M. J. Bollong et al. ACS Chem. Biol. 10 (2015) 2193-2198). Cells were collected by brief trypsinization and centrifugation at 500 g for 5 minutes. Cells were lysed by the addition of RIPA buffer with protease and phosphatase inhibitors (Roche). Lysates were incubated on ice for 30 minutes before eliminating insoluble protein content by centrifugation at 12,000 g for 5 minutes at 4° C. Protein concentrations were determined from absorbance values obtained by a Nanodrop instrument. Equal amounts of protein were then mixed with 2× loading buffer (100 mM TRIS-HCl, 1% SDS, 10% glycerol, 0.1% bromophenol blue 10%-mercaptoethanol) and exposed to 95° C. for 5 minutes. Protein was separated by SDS-PAGE using 4-12% Bis-Tris Gels (Invitrogen) and then transferred to PVDF membranes (Invitrogen) using semi-dry transfer. Membranes were blocked for 1 hour at room temperature in 5% non-fat dry milk in TBST (Tris buffered saline with 0.1% Tween 20). Membranes were incubated overnight with primary antibodies in blocking buffer overnight at the dilutions ranging from 1:500 to 1:2000. After 3 washes with TBST, membranes were then exposed to HRP-conjugated secondary antibodies (1:5000 in blocking buffer, Sigma) for one hour followed by one hour of additional washing with TBST. Relative protein content was visualized using film and SuperSignal West Dura Substrate. For VIM degradation blots, 20-60 μg of protein content was loaded per gel lane and the anti-VIM antibody V9 (ab8069) was used to blot for VIM protein content. Phospho-protein blots were performed as above with the exception that primary antibodies were incubated in 5% bovine serum albumin in TBST instead of milk.
We performed Western blotting analysis of FOXC2-HMLER cells treated for 24 hours with Compound 1 with commercially available antibodies targeting specific phosphorylated VIM species (P-S39, P-S56, P-S83).
In contrast, only a small fraction of cells undergoing mitosis stained positive for P-S56-VIM in DMSO-treated controls, consistent with previous reports identifying phosphorylation at S56 as a modification catalyzed by cyclin dependent kinase 1 (CDK1; FIG. 6) (T. Yamaguchi, T. et al., J. Cell Biol. 171 (2005) 431-436.

FOXC2-HMLER cells [6] = experiment: Confocal imaging of thymidine synced FOXC2-HMLER cells at metaphase; format: cell-based, human
Text: Because Compound 1 induces a hyper-phosphorylated VIM phenotype, we sought to determine if Compound 1's engagement of VIM might interfere at an alternative stage of mitosis. We therefore performed time course confocal imaging studies of Compound 1 treated FOXC2-HMLER cells after their release from thymidine blocking-based cell cycle synchronization.
Compound 1 treatment also disrupted the ability of β-tubulin to faithfully form the fine spindle microtubules of the mitotic spindle, instead resulting in a compressed phenotype with radiating projections connecting unaligned chromosomes. To assess the uniqueness of this phenotype, we evaluated the metaphase phenotypes of other chemical inhibitors which have shown to alter mitotic progression. These included inhibitors of centromere-associated protein E (CENP-E, also called kinesin-7, GSK92395), kinesin spindle protein (KSP, also called Eg5, Ispinesib), polo like kinases (PLK1/2/3, BI2536), and aurora kinases (AURKA/B/C, VX-680).

T1 sequence (P08670 whole entry): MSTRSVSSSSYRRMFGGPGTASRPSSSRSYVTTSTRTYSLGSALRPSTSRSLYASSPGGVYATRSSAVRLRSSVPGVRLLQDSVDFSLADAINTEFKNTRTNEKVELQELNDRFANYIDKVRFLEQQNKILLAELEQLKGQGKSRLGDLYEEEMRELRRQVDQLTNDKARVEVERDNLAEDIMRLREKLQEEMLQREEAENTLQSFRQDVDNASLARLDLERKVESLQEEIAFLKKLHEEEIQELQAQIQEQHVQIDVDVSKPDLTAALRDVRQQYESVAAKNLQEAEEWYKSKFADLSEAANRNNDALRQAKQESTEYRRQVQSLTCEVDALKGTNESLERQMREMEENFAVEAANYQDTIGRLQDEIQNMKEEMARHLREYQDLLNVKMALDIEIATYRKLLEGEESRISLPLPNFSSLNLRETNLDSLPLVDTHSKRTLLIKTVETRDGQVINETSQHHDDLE
T2 sequence (P08670 whole entry): as above

SMILES: COc1cccc2c1C(=O)c1c(O)c3c(c(O)c1C2=O)C[C@@](O)(C(=O)CO)C[C@@H]3O[C@H]1C[C@H](N)[C@H](O)[C@H](C)O1 [doxorubicin, reference compound]
IC50 (control HMLER cells): 267 nM
IC50 [1]: 447 nM

labeling of type III intermediate filament proteins ([2]; VIM vs Peripherin, GFAP, Desmin recombinant preparations): labeled VIM exclusively
SMILES: CC1(CC[C@H](NC(=O)CCOCCOCCNC(=O)CCCC[C@@H]2SC[C@@H]3NC(=O)N[C@@H]32)C(=O)NCCOCCOCCOc2cc(Cl)cc(N3CCN(c4cnnc5c(Cl)cccc45)CC3)c2)N=N1 [Compound 1-PAP, N—((S)-1-(3-chloro-5-(4-(8-chlorocinnolin-4-yl)piperazin-1-yl)phenoxy)-11-(2-(3-methyl-3H-diazirin-3-yl)ethyl)-10,13-dioxo-3,6,16,19-tetraoxa-9,12-diazahenicosan-21-yl)-5-((3aS,4S,6aR)-2-oxohexahydro-1H-thieno[3,4-d]imidazol-4-yl)pentanamide]
labeling of VIM domains expressed as GST fusion proteins ([2]; head, rod and tail domains): binds specifically and potently to the rod domain of VIM

lower molecular weight VIM degradation products (VIM [5]): dose-dependent accumulation
SMILES: CC1=C(CO)C(=O)O[C@@H]([C@@H](C)[C@H]2CC[C@H]3[C@@H]4C[C@H]5O[C@]56[C@@H](O)C=CC(=O)[C@]6(C)[C@H]4CC[C@]23C)C1 [WIF-A, Withaferin A, reference compound]
VIM filamentous architecture in HUVECs (VIM [3]): promoted the destruction of fine VIM-containing filamentous structures
multinucleated FOXC2-HMLER cells (FOXC2-HMLER cells [4]): significant increase
chromosome alignment to the metaphase plate (FOXC2-HMLER cells [6]): unaligned chromosomes during metaphase
